The assay has as its target T1, KRas G12C (Homo sapiens, UniProt P01116, G12C).
T1 construct: NCI-H358 cells (ATCC CRL-5807) express KRas G12C
Nature of the assay: Inhibition of KRas G12C-dependent cell growth: Phospho-ERK in NCI-H358 cells. Particulars: NCI-H358 cells expressing KRas G12C; Phospho-ERK (Thr202/Tyr204) normalized to GAPDH; 3 hours compound; 4 parameter fit. The class given is cell-based. An outline of the steps: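 Phospho-ERK read-out in KRas G12C-expressing NCI-H358 cells after 3 h compound treatment (final DMSO 0.5%), by in-cell infrared immunodetection. Signal normalized to GAPDH and to DMSO controls. 4-parameter curve fit gave IC50.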
T1 sequence (P01116 1-188 isoform P01116-2 G12C): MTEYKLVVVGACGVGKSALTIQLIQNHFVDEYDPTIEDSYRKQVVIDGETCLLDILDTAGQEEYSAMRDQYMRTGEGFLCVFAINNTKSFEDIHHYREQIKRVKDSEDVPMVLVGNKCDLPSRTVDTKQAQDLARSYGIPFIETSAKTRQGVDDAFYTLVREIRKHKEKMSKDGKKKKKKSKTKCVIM
Take `CN(C)CC#CC(=O)N1CCN(c2ncnc3c(F)c(-c4cccc5ccc(F)c(Cl)c45)ncc23)CC1` [Example 200]: 410 nM corresponded to half-maximal inhibition (IC50).

Regarding `CC#CC(=O)N1CCN(c2ncnc3c(F)c(-c4cccc5ccc(F)c(Cl)c45)ncc23)CC1` [Example 201], the 50% inhibitory concentration (IC50) was 10000 nM. `C=CS(=O)(=O)N1CCN(c2ncnc3c(F)c(-c4cccc5ccc(F)c(Cl)c45)ncc23)CC1` [Example 205] registered an IC50 of 10000 nM. The value for `C=CC(=O)N1CCN(c2nc(C)nc3c(F)c(-c4cc(O)cc5ccccc45)ncc23)CC1` [Example 206] was 1680 nM; that for `C=C(F)C(=O)N1CCN(c2nc(Oc3cccc4c3CCN(C)C4)nc3c(F)c(-c4cccc5ccc(F)c(Cl)c45)ncc23)C[C@@H]1CC#N` [Example 207] was 6850 nM; that for `C=C(F)C(=O)N1CCN(c2nc(OCC3(C)C(OC)CN3C)nc3c(F)c(-c4cccc5ccc(F)c(Cl)c45)ncc23)C[C@@H]1CC#N` (stereo partly shown) [Example 208] was 4 nM. The compound `C=C(F)C(=O)N1CCN(c2nc(OC[C@@H]3CCCN3C3CC3)nc3c(F)c(-c4cccc5ccc(F)c(Cl)c45)ncc23)C[C@@H]1CC#N` [Example 209] came in with an IC50 of 46 nM. Compound `C=C(F)C(=O)N1CCN(c2nc(OC[C@@H]3CC(F)(F)CN3C)nc3c(F)c(-c4cccc5ccc(F)c(Cl)c45)ncc23)C[C@@H]1CC#N` [Example 210] returned an IC50 of 49 nM. Take `C=C(F)C(=O)N1CCN(c2nc(OC[C@@H]3CCCN3C)nc3c(O)c(-c4cccc5cccc(C)c45)ncc23)C[C@@H]1CC#N` [Example 211, 2-((S)-1-(2-fluoroacryloyl)-4-(8-hydroxy-7-(8-methylnaphthalen-1-yl)-2-(((S)-1-methylpyrrolidin-2-yl)methoxy)pyrido[4,3-d]pyrimidin-4-yl)piperazin-2-yl)acetonitrile]: the IC50 stood at 2 nM. On to `C#Cc1cccc2cccc(-c3ncc4c(N5CCN(C(=O)C(=C)F)[C@@H](CC#N)C5)nc(OC[C@@H]5CCCN5C)nc4c3F)c12` [Example 212, 2-((S)-4-(7-(8-ethynylnaphthalen-1-yl)-8-fluoro-2-(((S)-1-methylpyrrolidin-2-yl)methoxy)pyrido[4,3-d]pyrimidin-4-yl)-1-(2-fluoroacryloyl)piperazin-2-yl)acetonitrile], for which the IC50 came out at 7 nM.

The compound `C#Cc1cccc2cccc(-c3ncc4c(N5CCN(C(=O)C=C)CC5)nc(OC[C@@H]5CCCN5C)nc4c3F)c12` [Example 213, (S)-1-(4-(7-(8-ethynylnaphthalen-1-yl)-8-fluoro-2-((1-methylpyrrolidin-2-yl)methoxy)pyrido[4,3-d]pyrimidin-4-yl)piperazin-1-yl)prop-2-en-1-one] returned an IC50 of 62 nM. This IC50 is about 8.9-fold higher than that of the compound before. The value for `C#Cc1cccc2cccc(-c3ncc4c(N5CCN(C(=O)C=C)CC5)ncnc4c3F)c12` [Example 214, 1-(4-(7-(8-ethynylnaphthalen-1-yl)-8-fluoropyrido[4,3-d]pyrimidin-4-yl)piperazin-1-yl)prop-2-en-1-one] was 2110 nM. `C#Cc1cccc2cc(O)cc(-c3ncc4c(N5CCN(C(=O)C=C)CC5)ncnc4c3F)c12` [Example 215, 1-(4-(7-(8-ethynyl-3-hydroxynaphthalen-1-yl)-8-fluoropyrido[4,3-d]pyrimidin-4-yl)piperazin-1-yl)prop-2-en-1-one]: half-maximal inhibition (IC50) was put at 31 nM.

Regarding `C=C(F)C(=O)N1CCN(c2nc(OCC34CCCN3C(CO)CC4)nc3c(F)c(-c4cccc5ccc(F)c(Cl)c45)ncc23)C[C@@H]1CC#N` (stereo partly shown) [Example 216, 2-((2 S)-4-(7-(8-chloro-7-fluoronaphthalen-1-yl)-8-fluoro-2-((3-(hydroxymethyl)tetrahydro-1H-pyrrolizin-7a(5H)-yl)methoxy)pyrido[4,3-d]pyrimidin-4-yl)-1-(2-fluoroacryloyl)piperazin-2-yl)acetonitrile], inhibition was half-maximal at 121 nM (IC50). The value for `C=C(F)C(=O)N1CCN(c2nc(OCC3CCC4(CO)CCCN34)nc3c(F)c(-c4cccc5ccc(F)c(Cl)c45)ncc23)C[C@@H]1CC#N` (stereo partly drawn) [Example 217, 2-((2S)-4-(7-(8-chloro-7-fluoronaphthalen-1-yl)-8-fluoro-2-((7a-(hydroxymethyl)hexahydro-1H-pyrrolizin-3-yl)methoxy)pyrido[4,3-d]pyrimidin-4-yl)-1-(2-fluoroacryloyl)piperazin-2-yl)acetonitrile] was 11 nM. As for `C=CC(=O)N1CCN(c2ncnc3c(F)c(-c4cc(O)cc5ccccc45)ncc23)CC1` [Example 218, 1-(4-(8-fluoro-7-(3-hydroxynaphthalen-1-yl)pyrido[4,3-d]pyrimidin-4-yl)piperazin-1-yl)prop-2-en-1-one], 711 nM corresponded to half-maximal inhibition (IC50).

`C=CC(=O)N1CCN(c2nc(C3CC3)nc3c(F)c(-c4cccc5ccc(F)c(Cl)c45)ncc23)C[C@@H]1CC#N` [Example 219, (S)-2-(1-acryloyl-4-(7-(8-chloro-7-fluoronaphthalen-1-yl)-2-cyclopropyl-8-fluoropyrido[4,3-d]pyrimidin-4-yl)piperazin-2-yl)acetonitrile] returned an IC50 of 538 nM. For `C=CC(=O)N1CCN(c2ncnc3c(F)c(-c4cc(O)cc5ccccc45)ncc23)C[C@@H]1CC#N` [Example 220, (S)-2-(1-acryloyl-4-(8-fluoro-7-(3-hydroxynaphthalen-1-yl)pyrido[4,3-d]pyrimidin-4-yl)piperazin-2-yl)acetonitrile], half-maximal inhibition (IC50) required 22 nM. Turning to `O=C(/C=C/CF)N1CC[C@@H]2[C@H]1CN2c1ncnc2c(F)c(-c3cccc4ccc(F)c(Cl)c34)ncc12` [Example 221], the IC50 amounted to 1930 nM.

The compound `C=CC(=O)N1CCN(c2ncnc3c(F)c(-c4ccccc4C(C)C)ncc23)CC1` [Example 222] gave an IC50 of 10000 nM. In turn, `C=CC(=O)N1CCN(c2ncnc3c(F)c(-c4cccc5ccccc45)ncc23)CC1` [Example 223] registered an IC50 of 10000 nM. `C=CC(=O)N1CCN(c2ncnc3c(F)c(-c4ccccc4C4CC4)ncc23)CC1` [Example 224] gave an IC50 of 10000 nM. Consider `C=CC(=O)N1CCN(c2ncnc3c(F)c(-c4c(O)ccc5ccccc45)ncc23)CC1` [Example 225], for which the IC50 amounted to 4930 nM. Compared with the last compound, the IC50 is about 2-fold lower. For `C=CC(=O)N1CC[C@@H]2[C@H]1CN2c1nc(OCC23CCCN2CCC3)nc2c(F)c(-c3cccc4ccc(F)c(Cl)c34)ncc12` [Example 227], the midpoint of inhibition, the IC50, lay at 5 nM.

For the compound `C=CC(=O)N1C[C@@H]2[C@H]1CCN2c1nc(OC[C@@H]2CCCN2C)nc2c(F)c(-c3cccc4ccc(F)c(Cl)c34)ncc12` [Example 228], it took 230 nM to reach half-maximal inhibition (IC50). Compound `C=C(F)C(=O)N1CCN(c2nc(OC[C@@]34CCCN3C[C@H](F)C4)nc3c(F)c(-c4cccc5ccc(F)c(Cl)c45)ncc23)C[C@@H]1CC#N` [Example 229] gave an IC50 of 1 nM. As to `C=C(F)C(=O)N1CCN(c2nc(OCCNC(=O)C(C)C)nc3c(F)c(-c4cccc5ccc(F)c(Cl)c45)ncc23)C[C@@H]1CC#N` [Example 230], the IC50 was determined as 1850 nM. With `C=CC(=O)N1C[C@@H]2[C@H]1CCN2c1nc(C)nc2c(F)c(-c3cccc4ccc(F)c(Cl)c34)ncc12` [Example 231], the midpoint of inhibition, the IC50, lay at 4280 nM. With `C=CC(=O)N1C[C@H]2[C@@H]1CCN2c1ncnc2c(F)c(-c3cccc4ccc(F)c(Cl)c34)ncc12` [Example 232], it took 10000 nM to reach half-maximal inhibition (IC50).

For the compound `C=CC(=O)N1CCCC12CCN(c1ncnc3c(F)c(-c4cccc5ccc(F)c(Cl)c45)ncc13)C2` (stereo not shown) [Example 233], half-maximal inhibition (IC50) was put at 10000 nM. In the case of `C=CC(=O)N1CCN(c2ncnc3c(F)c(-c4cccc5ccc(F)c(Cl)c45)ncc23)CC12CC2` [Example 234], inhibition was half-maximal at 10000 nM (IC50).

A word on the IC50: it is the point on the concentration scale where inhibition reaches its midpoint. The low end stands for higher potency, the high end for lower potency.

(Values after patent publication US11548888B2, “KRas G12C inhibitors” (Mirati Therapeutics, Inc., priority 2019, dated 2023).)
